EC50 data for seven compounds are collected here from US10131702B2, “Glucagon-GLP-1-GIP triple agonist compounds” (priority 2013, dated 2018).

pEC50: −log10 of the molar value. Read-outs that look alike come from different tables or passages of the source. Numbered stars: 1 amine (or outer) side, 2 acyl side, 3 side chain; on linkers, the order of the positions; unused ones are H or OH. Square brackets hold non-standard residues; d marks the D form. Side chains are listed from the residue outwards. Peptide text beside a SMILES is read from it. * marks the point of attachment. γGlu = O=C(O)[C@H](CCC(=O)[*:2])N[*:1]; Stearoyl = CCCCCCCCCCCCCCCCCC(=O)*; AEEA = NCCOCCOCC(=O)O; Aib = CC(C)(N)C(=O)O

What all share (format): cell-based
One assay addresses T1, human GIP R (Homo sapiens, UniProt P48546).
T1 construct: expressed in transfected cells
T1 sequence (P48546 22-466): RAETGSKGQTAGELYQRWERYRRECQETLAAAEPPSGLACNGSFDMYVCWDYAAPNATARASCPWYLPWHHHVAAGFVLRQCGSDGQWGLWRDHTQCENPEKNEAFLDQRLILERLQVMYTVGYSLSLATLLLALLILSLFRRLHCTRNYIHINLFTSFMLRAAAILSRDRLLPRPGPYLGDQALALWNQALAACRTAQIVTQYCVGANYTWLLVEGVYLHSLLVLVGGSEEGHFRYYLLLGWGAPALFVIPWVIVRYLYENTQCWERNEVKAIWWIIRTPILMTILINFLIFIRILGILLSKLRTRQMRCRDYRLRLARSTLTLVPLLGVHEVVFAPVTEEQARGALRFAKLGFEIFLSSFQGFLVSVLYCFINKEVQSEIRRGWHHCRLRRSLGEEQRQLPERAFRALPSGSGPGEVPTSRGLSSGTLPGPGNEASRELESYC
Put plainly: cAMP induction in HEK293 cells expressing human GIP R (AlphaScreen cAMP kit). Background: Bead proximity is the source of the signal in Alpha formats.

The target of a further assay is T2, human GCG R (Homo sapiens, UniProt P47871).
T2 construct: expressed in transfected cells
Put plainly: cAMP induction in HEK293 cells expressing human GCG R (AlphaScreen cAMP kit).

The target of another assay is T3, human GLP-1 R (Homo sapiens, UniProt P43220).
T3 construct: expressed in transfected cells
Put plainly: cAMP induction in HEK293 cells expressing human GLP-1 R (AlphaScreen cAMP kit). The following applies: average EC50, cAMP, HEK293 cells expressing human GLP-1 R, read-out: GLP1 R (EC50 in nM).

The mark [1] stands for this setting: GIP R (EC50 in nM), Table 2, average EC50, cAMP.
Setting [2] is: GIP R (EC50 in nM), Table 2b (most comprehensive data), average EC50, cAMP.
Setting [3] is: Table 2b (most comprehensive data).

T2 sequence (P47871 26-477): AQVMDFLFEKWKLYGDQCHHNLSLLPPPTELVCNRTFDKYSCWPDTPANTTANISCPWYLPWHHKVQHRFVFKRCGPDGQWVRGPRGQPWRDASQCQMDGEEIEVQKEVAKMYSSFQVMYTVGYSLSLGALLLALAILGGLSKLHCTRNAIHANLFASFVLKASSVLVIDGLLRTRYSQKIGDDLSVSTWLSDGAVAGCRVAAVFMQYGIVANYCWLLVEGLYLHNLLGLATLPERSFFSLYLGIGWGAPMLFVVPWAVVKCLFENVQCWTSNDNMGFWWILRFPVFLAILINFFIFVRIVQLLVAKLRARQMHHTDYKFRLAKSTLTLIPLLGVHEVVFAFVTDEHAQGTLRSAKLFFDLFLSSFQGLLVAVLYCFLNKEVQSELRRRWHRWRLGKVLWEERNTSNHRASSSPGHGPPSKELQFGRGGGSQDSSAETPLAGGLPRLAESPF
T3 sequence (P43220 24-463): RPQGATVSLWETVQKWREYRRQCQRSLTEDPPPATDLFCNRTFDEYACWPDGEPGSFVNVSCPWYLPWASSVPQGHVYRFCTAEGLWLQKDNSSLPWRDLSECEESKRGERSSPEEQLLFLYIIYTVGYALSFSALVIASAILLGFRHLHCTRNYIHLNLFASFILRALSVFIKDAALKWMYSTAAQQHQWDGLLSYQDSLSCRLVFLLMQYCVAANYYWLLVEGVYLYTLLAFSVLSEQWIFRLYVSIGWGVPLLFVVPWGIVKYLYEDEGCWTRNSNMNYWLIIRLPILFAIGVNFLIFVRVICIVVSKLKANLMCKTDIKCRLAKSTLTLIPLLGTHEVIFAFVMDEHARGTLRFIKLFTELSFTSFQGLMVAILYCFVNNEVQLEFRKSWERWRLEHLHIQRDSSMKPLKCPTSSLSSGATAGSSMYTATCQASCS
Description for human GIP R: (§1) Briefly, HEK293 cells expressing the human GIP R, GLP-1 R or GCG R (stable cell lines generated through transfection of the cDNA for human GIP R, GLP-1 R or GCG R and selection of stable clones) were seeded at 30,000 cells/well in 96-well microtiter plates coated with 0.01% poly-L-lysine, and grown for 1 day in culture in 200 μl growth medium (DMEM, 10% FCS, Penicillin (100 IU/ml), Streptomycin (100 μg/ml)). On the day of analysis, growth medium was removed and the cells were washed once with 150 μl Tyrode's buffer (Tyrode's Salts (9.6 g/l), 10 mM HEPES, pH 7.4). […] The Assay buffer was removed and cells are lysed in 80 μl Lysis buffer (0.1% w/v BSA, 5 mM HEPES, 0.3% v/v Tween-20) per well. From each well 10 μl of lysed cells were transferred to a 384-well plate and mixed with 15 μl bead-mix (1 Unit/15 μl anti-cAMP Acceptor Beads, 1 Unit/15 μl Donor Beads, and 1 Unit/15 μl Biotinylated cAMP in Assay Buffer). The plates were mixed and incubated in the dark for an hour at room temperature before measuring using an Envision™ plate reader (Perkin-Elmer).
(§2) The resulting cAMP curves were plotted as absolute cAMP concentrations (nM) over log (test compound concentration) and analyzed using the curve fitting program XLfit.
(§3) Parameters calculated to describe both the potency as well as the agonistic activity of each test compound on the receptors were:
(§4) EC50, a concentration resulting in a half-maximal elevation of cAMP levels, reflecting the potency of the test compound.
Description for human GLP-1 R: as §1, §2, §3, §4

With `CC[C@H](C)[C@H](NC(=O)[C@H](CO)NC(=O)[C@H](Cc1ccc(O)cc1)NC(=O)[C@H](CC(=O)O)NC(=O)[C@H](CO)NC(=O)[C@@H](NC(=O)[C@H](Cc1ccccc1)NC(=O)[C@@H](NC(=O)CNC(=O)[C@H](CCC(N)=O)NC(=O)C(C)(C)NC(=O)[C@@H](N)Cc1ccc(O)cc1)[C@@H](C)O)[C@@H](C)O)C(=O)N[C@@H](Cc1ccc(O)cc1)C(=O)N[C@@H](CC(C)C)C(=O)N[C@@H](CC(=O)O)C(=O)N[C@@H](CCC(=O)O)C(=O)N[C@@H](CCCCN)C(=O)N[C@@H](C)C(=O)N[C@@H](C)C(=O)N[C@@H](CCCCN)C(=O)N[C@@H](CC(=O)O)C(=O)N[C@@H](Cc1ccccc1)C(=O)N[C@H](C(=O)N[C@@H](CCC(=O)O)C(=O)N[C@@H](Cc1c[nH]c2ccccc12)C(=O)N[C@@H](CC(C)C)C(=O)N[C@@H](CC(C)C)C(=O)N[C@@H](CO)C(=O)N[C@@H](C)C(N)=O)C(C)C` [Compound 17] (HELM PEPTIDE1{Y.[Aib].Q.G.T.F.T.S.D.Y.S.I.Y.L.D.E.K.A.A.K.D.F.V.E.W.L.L.S.A.[am]}$$$$V2.0), the EC50 came out at 0.091 nM on human GIP R (setting [1]), 0.013 nM at human GIP R (setting [2]), 0.011 nM at human GLP-1 R (Table 2) and 0.16 nM on human GLP-1 R (setting [3]). The pEC50 on human GCG R was 9.80.
For `CC[C@H](C)[C@H](NC(=O)[C@H](CO)NC(=O)[C@H](Cc1ccc(O)cc1)NC(=O)[C@H](CC(=O)O)NC(=O)[C@H](CO)NC(=O)[C@@H](NC(=O)[C@H](Cc1ccccc1)NC(=O)[C@@H](NC(=O)CNC(=O)[C@H](CCC(N)=O)NC(=O)C(C)(C)NC(=O)[C@@H](N)Cc1ccc(O)cc1)[C@@H](C)O)[C@@H](C)O)C(=O)N[C@@H](Cc1ccc(O)cc1)C(=O)N[C@@H](CC(C)C)C(=O)N[C@@H](CC(=O)O)C(=O)N[C@@H](CCC(=O)O)C(=O)N[C@@H](CCCCN)C(=O)N[C@@H](C)C(=O)N[C@@H](C)C(=O)N[C@@H](Cc1c[nH]cn1)C(=O)N[C@@H](CC(=O)O)C(=O)N[C@@H](Cc1ccccc1)C(=O)N[C@H](C(=O)N[C@@H](CCC(=O)O)C(=O)N[C@@H](Cc1c[nH]c2ccccc12)C(=O)N[C@@H](CC(C)C)C(=O)N[C@@H](CC(C)C)C(=O)N[C@@H](CO)C(=O)N[C@@H](C)C(N)=O)C(C)C` [Compound 9] (HELM PEPTIDE1{Y.[Aib].Q.G.T.F.T.S.D.Y.S.I.Y.L.D.E.K.A.A.H.D.F.V.E.W.L.L.S.A.[am]}$$$$V2.0), the EC50 on human GIP R (setting [1]) worked out at 0.056 nM; on human GLP-1 R (Table 2) it was 0.0055 nM. This compound had a pEC50 at human GCG R of 10.01.
In the case of `CCCCCCCCCCCCCCCC(=O)N[C@@H](CCC(=O)NCCCC[C@H](NC(=O)[C@H](CO)NC(=O)[C@H](CC(=O)O)NC(=O)[C@H](CC(C)C)NC(=O)[C@H](Cc1ccc(O)cc1)NC(=O)[C@@H](NC(=O)[C@H](CO)NC(=O)[C@H](Cc1ccc(O)cc1)NC(=O)[C@H](CC(=O)O)NC(=O)[C@H](CO)NC(=O)[C@@H](NC(=O)[C@H](Cc1ccccc1)NC(=O)[C@@H](NC(=O)CNC(=O)[C@H](CCC(N)=O)NC(=O)C(C)(C)NC(=O)[C@@H](N)Cc1ccc(O)cc1)[C@@H](C)O)[C@@H](C)O)[C@@H](C)CC)C(=O)N[C@@H](C)C(=O)N[C@@H](C)C(=O)N[C@@H](Cc1c[nH]cn1)C(=O)N[C@@H](CC(=O)O)C(=O)N[C@@H](Cc1ccccc1)C(=O)N[C@H](C(=O)N[C@@H](CCC(=O)O)C(=O)N[C@@H](Cc1c[nH]c2ccccc12)C(=O)N[C@@H](CC(C)C)C(=O)N[C@@H](CC(C)C)C(=O)N[C@@H](CCCNC(=N)N)C(=O)N[C@@H](C)C(N)=O)C(C)C)C(=O)O` [Compound 27] (HELM PEPTIDE1{Y.[Aib].Q.G.T.F.T.S.D.Y.S.I.Y.L.D.S.K.A.A.H.D.F.V.E.W.L.L.R.A.[am]}|PEPTIDE2{[CCCCCCCCCCCCCCCC(=O)[*:2]].[gGlu]}$PEPTIDE1,PEPTIDE2,17:R3-2:R2$$$V2.0), the half-maximal effective concentration (EC50) at human GIP R (Table 2, average EC50, cAMP, read-out: GIP R (EC50 in nM)) came out at 0.12 nM; at human GIP R (Table 2b (most comprehensive data), average EC50, cAMP, read-out: GIP R (EC50 in nM)), 0.16 nM; at human GCG R (Table 2, average EC50, cAMP, HEK293 cells expressing human GCG R, read-out: GCG R (EC50 in nM)), 0.07 nM; on human GLP-1 R (Table 2), 0.16 nM; at human GLP-1 R (setting [3]), 0.07 nM.
As for `CC[C@H](C)[C@H](NC(=O)[C@H](CO)NC(=O)[C@H](Cc1ccc(O)cc1)NC(=O)[C@H](CC(=O)O)NC(=O)[C@H](CO)NC(=O)[C@@H](NC(=O)[C@H](Cc1ccccc1)NC(=O)[C@@H](NC(=O)CNC(=O)[C@H](CCC(N)=O)NC(=O)C(C)(C)NC(=O)[C@@H](N)Cc1ccc(O)cc1)[C@@H](C)O)[C@@H](C)O)C(=O)N[C@@H](Cc1ccc(O)cc1)C(=O)N[C@@H](CC(C)C)C(=O)N[C@@H](CCC(=O)O)C(=O)N[C@@H](CO)C(=O)N[C@@H](CCCCN)C(=O)N[C@@H](C)C(=O)N[C@@H](C)C(=O)N[C@@H](Cc1c[nH]cn1)C(=O)N[C@@H](CC(=O)O)C(=O)N[C@@H](Cc1ccccc1)C(=O)N[C@H](C(=O)N[C@@H](CCC(=O)O)C(=O)N[C@@H](Cc1c[nH]c2ccccc12)C(=O)N[C@@H](CC(C)C)C(=O)N[C@@H](CC(C)C)C(=O)N[C@@H](CO)C(=O)N[C@@H](C)C(N)=O)C(C)C` [Compound 18] (HELM PEPTIDE1{Y.[Aib].Q.G.T.F.T.S.D.Y.S.I.Y.L.E.S.K.A.A.H.D.F.V.E.W.L.L.S.A.[am]}$$$$V2.0), the figures for the EC50 on human GIP R (setting [1]), at human GLP-1 R (Table 2) and at human GLP-1 R (setting [3]) were 0.07 nM, 0.021 nM and 0.15 nM, respectively. Also, the negative-log EC50 (pEC50) on human GCG R was 9.82.
For the compound `CCCCCCCCCCCCCCCCCC(=O)N[C@@H](CCC(=O)NCCOCCOCC(=O)NCCOCCOCC(=O)NCCCC[C@H](NC(=O)[C@H](CCCCN)NC(=O)[C@H](CCC(=O)O)NC(=O)[C@H](CC(C)C)NC(=O)[C@H](C)NC(=O)[C@@H](NC(=O)[C@H](CO)NC(=O)[C@H](Cc1ccc(O)cc1)NC(=O)[C@H](CC(=O)O)NC(=O)[C@H](CO)NC(=O)[C@@H](NC(=O)[C@H](Cc1ccccc1)NC(=O)[C@@H](NC(=O)CNC(=O)[C@H](CCC(N)=O)NC(=O)C(C)(C)NC(=O)[C@@H](N)Cc1ccc(O)cc1)[C@@H](C)O)[C@@H](C)O)[C@@H](C)CC)C(=O)N[C@@H](C)C(=O)N[C@@H](CCC(N)=O)C(=O)N[C@@H](CCCNC(=N)N)C(=O)N[C@@H](C)C(=O)N[C@@H](Cc1ccccc1)C(=O)N[C@H](C(=O)N[C@@H](CCC(=O)O)C(=O)N[C@@H](Cc1c[nH]c2ccccc12)C(=O)N[C@@H](CC(C)C)C(=O)N[C@@H](CC(C)C)C(=O)N[C@@H](C)C(=O)N[C@@H](CCC(N)=O)C(=O)N[C@@H](CCCCN)C(N)=O)C(C)C)C(=O)O` [Compound 46] (H-Y[Aib]QGTFTSDYSIALEKK([AEEA-AEEA-γGlu-Stearoyl])AQRAFVEWLLAQK-NH2), the figures for the EC50 at human GIP R (setting [2]) and at human GLP-1 R (setting [3]) were 0.011 nM and 0.16 nM, respectively. Also, at human GCG R, the pEC50 is 9.89.
For the compound `CC(C)C[C@H](NC(=O)[C@H](CC(C)C)NC(=O)[C@H](Cc1c[nH]c2ccccc12)NC(=O)[C@H](CCC(=O)O)NC(=O)[C@@H](NC(=O)[C@H](Cc1ccccc1)NC(=O)[C@H](CCC(=O)O)NC(=O)[C@H](CCCCN)NC(=O)[C@H](CCC(N)=O)NC(=O)[C@H](C)NC(=O)[C@H](CCCCN)NC(=O)[C@H](CCCCN)NC(=O)[C@H](CCC(=O)O)NC(=O)[C@H](CC(C)C)NC(=O)[C@H](Cc1ccc(O)cc1)NC(=O)[C@H](CCCCN)NC(=O)[C@H](CO)NC(=O)[C@H](Cc1ccc(O)cc1)NC(=O)[C@H](CC(=O)O)NC(=O)[C@H](CO)NC(=O)[C@@H](NC(=O)[C@H](Cc1ccccc1)NC(=O)[C@@H](NC(=O)CNC(=O)[C@H](CCC(N)=O)NC(=O)C(C)(C)NC(=O)[C@@H](N)Cc1ccc(O)cc1)[C@@H](C)O)[C@@H](C)O)C(C)C)C(=O)N[C@@H](CO)C(=O)N[C@@H](C)C(N)=O` [Compound 22] (HELM PEPTIDE1{Y.[Aib].Q.G.T.F.T.S.D.Y.S.K.Y.L.E.K.K.A.Q.K.E.F.V.E.W.L.L.S.A.[am]}$$$$V2.0), the concentration for a half-maximal effect (EC50) stood at 0.18 nM on human GIP R (setting [1]), 0.03 nM on human GIP R (setting [2]) and 0.028 nM at human GLP-1 R (Table 2). Besides, the pEC50 on human GCG R is 9.12.
On the same counts, the results for `CC[C@H](C)[C@H](NC(=O)[C@H](CO)NC(=O)[C@H](Cc1ccc(O)cc1)NC(=O)[C@H](CC(=O)O)NC(=O)[C@H](CO)NC(=O)[C@@H](NC(=O)[C@H](Cc1ccccc1)NC(=O)[C@@H](NC(=O)CNC(=O)[C@H](CCC(N)=O)NC(=O)C(C)(C)NC(=O)[C@@H](N)Cc1ccc(O)cc1)[C@@H](C)O)[C@@H](C)O)C(=O)N[C@@H](Cc1ccc(O)cc1)C(=O)N[C@@H](CC(C)C)C(=O)N[C@@H](CC(=O)O)C(=O)N[C@@H](CO)C(=O)N[C@@H](CCCCN)C(=O)N[C@@H](C)C(=O)N[C@@H](C)C(=O)N[C@@H](Cc1c[nH]cn1)C(=O)N[C@@H](CC(=O)O)C(=O)N[C@@H](Cc1ccccc1)C(=O)N[C@H](C(=O)N[C@@H](CCC(=O)O)C(=O)N[C@@H](Cc1c[nH]c2ccccc12)C(=O)N[C@@H](CC(C)C)C(=O)N[C@@H](CC(C)C)C(=O)N[C@@H](CO)C(=O)N[C@@H](C)C(N)=O)C(C)C` [Compound 5] (HELM PEPTIDE1{Y.[Aib].Q.G.T.F.T.S.D.Y.S.I.Y.L.D.S.K.A.A.H.D.F.V.E.W.L.L.S.A.[am]}$$$$V2.0) are 0.17 nM, 0.009 nM, 0.0092 nM and 10.19.

Usually EC50 stands for the concentration at which the effect is half-maximal. The term pEC50 denotes the EC50 on a negative log10 scale, so that one unit is a factor of ten. Low values mean a high EC50, high ones a low EC50.
